Drawing on ChEMBL document CHEMBL5376011, “Discovery of Anti-Hypercholesterolemia Agents Targeting LXRα from Marine Microorganism-Derived Natural Products” (J Nat Prod, 2024), this text covers Activity and fold change (FC) for 1 molecule.

For test [1], the system named is Mus musculus. Briefly: Antihypercholesterolemic activity against high cholesterol diet fed C57BL/6J mouse assessed as improvement in hepatocyte liposis at 300 microg/kg, ip administered every 2 days for 15 days by H&E staining based analysis. Type of test: functional, organism-based. Particulars: dose 300.0 µg/kg, time 15.0 day.
Test [2] concerns Mus musculus. Briefly: Antihypercholesterolemic activity against high cholesterol diet fed LXRalpha knockout C57BL/6J mouse assessed as improvement in hepatic steatosis at 300 microg/kg, ip administered every 2 days for 15 days by Oil red staining based analysis. Type of test: functional, organism-based. The following applies: dose 300.0 µg/kg, time 15.0 day.
Test [3] deals with Mus musculus. Kind of test: Antihypercholesterolemic activity against high cholesterol diet fed C57BL/6J mouse assessed as reduction in FASN protein level at 300 microg/kg, ip administered every 2 days for 15 days by Western blot analysis. Type of test: functional, organism-based. The following applies: dose 300.0 µg/kg, time 15.0 day. (In general: In western blotting, separated proteins are transferred to a membrane and probed.)

The subject of test [4] is HepG2. Kind of test: Improvement of lipid metabolism in palmitic acid and oleic acid induced human HepG2 cell model of hepatic steatosis assessed as reduction in lipid droplets at 25 uM preincubated with palmitic acid and oleic acid for 48 hrs followed by compound addition and measured after 24 hrs by Oil Red O staining based analysis. Type of test: functional.
In test [5] the test system is Mus musculus. Kind of test: Antihypercholesterolemic activity against high cholesterol diet fed LXRalpha knockout C57BL/6J mouse assessed as reduction in serum aspartate aminotransferase level at 300 microg/kg, ip administered every 2 days for 15 days. Type of test: functional, organism-based. The following applies: dose 300.0 µg/kg, time 15.0 day.
For test [6], the system named is Mus musculus. Briefly: Antihypercholesterolemic activity against high cholesterol diet fed C57BL/6J mouse assessed as reduction in SREBP1 protein level at 300 microg/kg, ip administered every 2 days for 15 days by Western blot analysis. Type of test: functional, organism-based. The following applies: dose 300.0 µg/kg, time 15.0 day.
Test [7] deals with HepG2. Kind of test: Improvement of lipid metabolism in palmitic acid and oleic acid induced human HepG2 cell model of hepatic steatosis assessed as reduction in triglyceride level at 25 uM preincubated with palmitic acid and oleic acid for 48 hrs followed by compound addition and measured after 24 hrs. The format is functional, cell-based.
Test [8] relates to Mus musculus. Kind of test: Antihypercholesterolemic activity against high cholesterol diet fed LXRalpha knockout C57BL/6J mouse assessed as upregulation in CYP7A1 protein level at 300 microg/kg, ip administered every 2 days for 15 days by Western blot analysis. Particulars: dose 300.0 µg/kg, time 15.0 day. The format is functional, organism-based.
Test [9] deals with Mus musculus. Kind of test: Antihypercholesterolemic activity against high cholesterol diet fed C57BL/6J mouse assessed as reduction of fine vacuoles in the cytoplasm at 300 microg/kg, ip administered every 2 days for 15 days by Oil red staining based analysis. Type of test: functional, organism-based. The following applies: dose 300.0 µg/kg, time 15.0 day.
Test [10] concerns HepG2. Briefly: Effect on ABCG1 mRNA expression in human HepG2 cells at 25 uM incubated for 24 hrs by RT-qPCR analysis. Type of test: functional, cell-based.
Test [11] relates to Mus musculus. Briefly: Antihypercholesterolemic activity against high cholesterol diet fed C57BL/6J mouse assessed as reduction in hepatocyte lysis necrosis at 300 microg/kg, ip administered every 2 days for 15 days by Oil red staining based analysis. Type of test: functional, organism-based. Particulars: dose 300.0 µg/kg, time 15.0 day.
Test [12] concerns Mus musculus. Briefly: Antihypercholesterolemic activity against high cholesterol diet fed LXRalpha knockout C57BL/6J mouse assessed as reduction in serum total cholesterol level at 300 microg/kg, ip administered every 2 days for 15 days. Type of test: functional, organism-based. Particulars: dose 300.0 µg/kg, time 15.0 day.
The subject of test [13] is Mus musculus. Kind of test: Antihypercholesterolemic activity against high cholesterol diet fed C57BL/6J mouse assessed as reduction in SCD1 protein level at 300 microg/kg, ip administered every 2 days for 15 days by Western blot analysis. The format is functional, organism-based. The following applies: dose 300.0 µg/kg, time 15.0 day.
Test [14] has as its system Mus musculus. Briefly: Antihypercholesterolemic activity against high cholesterol diet fed LXRalpha knockout C57BL/6J mouse assessed as improvement in hepatic steatosis at 300 microg/kg, ip administered every 2 days for 15 days by H&E staining based analysis. Type of test: functional, organism-based. Particulars: dose 300.0 µg/kg, time 15.0 day.
The test system of test [15] is Mus musculus. Briefly: Antihypercholesterolemic activity against high cholesterol diet induced C57BL/6J mouse assessed as reduction in serum aspartate aminotransferase level at 300 microg/kg, ip administered every 2 days for 15 days. Type of test: functional, organism-based. The following applies: dose 300.0 µg/kg, time 15.0 day.
In test [16] the target is T1, Oxysterols receptor LXR-alpha (Homo sapiens) (UniProt Q13133).
T1 sequence (whole entry): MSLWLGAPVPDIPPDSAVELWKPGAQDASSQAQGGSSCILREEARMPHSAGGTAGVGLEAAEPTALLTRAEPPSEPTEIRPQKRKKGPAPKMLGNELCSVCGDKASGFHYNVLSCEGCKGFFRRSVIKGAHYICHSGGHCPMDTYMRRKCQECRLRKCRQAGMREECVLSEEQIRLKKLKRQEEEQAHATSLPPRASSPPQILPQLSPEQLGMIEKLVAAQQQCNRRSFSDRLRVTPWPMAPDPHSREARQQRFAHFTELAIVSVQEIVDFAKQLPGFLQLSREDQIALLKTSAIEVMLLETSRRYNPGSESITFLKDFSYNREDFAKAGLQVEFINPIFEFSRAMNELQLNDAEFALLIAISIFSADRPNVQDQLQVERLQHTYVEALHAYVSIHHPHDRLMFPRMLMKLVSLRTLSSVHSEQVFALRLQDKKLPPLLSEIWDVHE
Briefly: Agonist activity at LXRalpha in human HepG2 cells assessed as upregulation of CYP7A1 mRNA expression by measuring fold change at 25 uM incubated for 24 hrs by RT-qPCR analysis. The format is cell-based. Particulars: filed as agonist. (In general: In qPCR the cycle at which signal appears reflects the starting amount.)

For test [17], the system named is Mus musculus. Kind of test: Antihypercholesterolemic activity against high cholesterol diet fed LXRalpha knockout C57BL/6J mouse assessed as reduction in serum low density lipoprotein cholesterol level at 300 microg/kg, ip administered every 2 days for 15 days. The format is functional, organism-based. Particulars: dose 300.0 µg/kg, time 15.0 day.
The test system of test [18] is Mus musculus. Kind of test: Antihypercholesterolemic activity against high cholesterol diet fed LXRalpha knockout C57BL/6J mouse assessed as upregulation in ABCA1 protein level at 300 microg/kg, ip administered every 2 days for 15 days by Western blot analysis. The format is functional, organism-based. Particulars: dose 300.0 µg/kg, time 15.0 day.
Test [19] has as its system Mus musculus. Briefly: Antihypercholesterolemic activity against high cholesterol diet fed C57BL/6J mouse assessed as improvement in hepatocyte degeneration at 300 microg/kg, ip administered every 2 days for 15 days by H&E staining based analysis. The format is functional, organism-based. Particulars: dose 300.0 µg/kg, time 15.0 day.
Test [20] has as its system Mus musculus. Briefly: Antihypercholesterolemic activity against high cholesterol diet fed LXRalpha knockout C57BL/6J mouse assessed as improvement in liver lipid droplet accumulation at 300 microg/kg, ip administered every 2 days for 15 days by Oil red staining based analysis. The following applies: dose 300.0 µg/kg, time 15.0 day. Type of test: functional, organism-based.

Test [21] relates to Mus musculus. Kind of test: Antihypercholesterolemic activity against high cholesterol diet fed C57BL/6J mouse assessed as reduction of fine vacuoles in the cytoplasm at 300 microg/kg, ip administered every 2 days for 15 days by H&E staining based analysis. Type of test: functional, organism-based. Particulars: dose 300.0 µg/kg, time 15.0 day.

Calls of active or inactive are those of the source. The calls are words filed in the database; no cut-off is given here.

With `COc1ccc2c(C[C@@H]3NC(=O)[C@@H]4CCCN4C3=O)c(CC=C(C)C)[nH]c2c1` [TRYPROSTATIN A], the outcome in test [1], in test [2], in test [3], in [4], in test [6] and in test [7] was Active. In addition, the outcome in test [9], in test [11], in [13], in [14], in [15] and in test [19] was Active. Besides, the result in [20] and in test [21] was Active. For the same molecule, the result in test [5], in test [8], in test [10], in [12], in test [17] and in [18] was inactive. Besides, the fold change (FC) in [16] came to 5.01.
